Test results published in publication PMC13070491, “Single-nucleus transcriptomics, pharmacokinetics, and pharmacodynamics of CDK4/6 and mTOR inhibition in a Phase 0/1 trial of recurrent high-grade glioma” (Neuro-Oncology, 2025).

System: GB126, GB239 and GB86 patient-derived cell lines
Assay: In vitro single-cell RNA sequencing, analyses across the cell lines (pseudobulk differential gene expression, GSEA, non-cycling cells)
Assay type: cell-based, human
Details: pseudobulk, ribociclib versus control (DMSO)
Description: Patient-derived glioma stem cell lines (GSCs; GB126, GB86, and GB239) were established from resected GBM tumor tissue. Cell lines were genetically profiled for mutations and copy number aberrations using the IvySeq custom gene panel. […] GB239 was derived from a tumor sample included in this Phase 0 trial (tumor sample: 100-0039). All human GSCs were cultured as described previously.[12]
Following the fifth day of drug exposure, cells were harvested, cryopreserved to be processed at a later point, or immediately processed for single-cell RNA sequencing (10x Genomics, 3’ version 3). The single-cell RNA sequencing data were then processed via cellranger count and Seurat. Briefly, cells were filtered out based on the following criteria: minimum number of genes detected >500 and <10 000 with a maximum percentage of mitochondrial genes set to 10%. Statistical assessment was made between the malignant proportions of each cell state using a 2-sided paired t-test.
Descriptive statistics of the clinical data are included in Table 1. Comparisons between groups were conducted using a 2-sided or paired 2-sided t-test, where indicated. P < .05 was considered significant. Multiple hypothesis test corrections (ie, false discovery rate correction) were applied for snRNAseq pseudobulk differential expression analysis.

## CN(C)C(=O)c1cc2cnc(Nc3ccc(N4CCNCC4)cn3)nc2n1C1CCCC1 [ribo]
Gene RTP4
  log2FoldChange RTP4: 2.131
Gene SAC3D1
  log2FoldChange: -1.1095
Gene SEC16B
  log2FoldChange SEC16B: 1.622
Gene SGO1
  log2FoldChange: -1.732
Gene SHISA8
  log2FoldChange: -1.822
Gene SLC2A4RG
  log2FoldChange: -1.127
Gene SNCG
  log2FoldChange SNCG: 1.82
Gene SNRPB
  log2FoldChange: -1.13
Gene SP6
  log2FoldChange SP6: 1.619
Gene SPTBN5
  log2FoldChange SPTBN5: 1.5798
Gene STARD8
  log2FoldChange: -1.058
Gene TCF19
  log2FoldChange: -1.684
Gene TEKT2
  log2FoldChange: -1.108
Gene TEKT4
  log2FoldChange TEKT4: 1.53
Gene TEX29
  log2FoldChange TEX29: 1.88
Gene TLR8
  log2FoldChange TLR8: 1.7124
Gene TM4SF4
  log2FoldChange TM4SF4: 1.515
Gene TMEM88
  log2FoldChange TMEM88: 1.467
Gene TMPO
  log2FoldChange: -1.685
Gene TNFRSF13C
  log2FoldChange: -1.634
Gene TRPC3
  log2FoldChange: -1.603
Gene TUBA1B
  log2FoldChange: -1.731
Gene TUSC7
  log2FoldChange TUSC7: 1.959
Gene TYMSOS
  log2FoldChange: -1.808
Gene UBE2S
  log2FoldChange: -1.812
Gene UHRF1
  log2FoldChange: -1.689
Gene WDR62
  log2FoldChange: -1.744
Gene XRCC2
  log2FoldChange: -1.646
Gene ZCCHC23
  log2FoldChange ZCCHC23: 1.565
  log2FoldChange, feature AC004835.1: -1.938
  log2FoldChange, feature AC011139.1: -2.033
  log2FoldChange, feature AC020658.4: -2.697
  log2FoldChange, feature AC027277.1: -2.37
  log2FoldChange, feature AC027627.1: -3.761
  log2FoldChange, feature AC079753.2: -3.036
  log2FoldChange, feature AC084757.2: -2.199
  log2FoldChange, feature AC087721.1: -2.244
  log2FoldChange, feature AC097534.1: -1.917
  log2FoldChange, feature AC099845.1: -2.325
  log2FoldChange, feature AF233439.1: -2.426
  log2FoldChange, feature AL023803.2: -2.112
  log2FoldChange, feature AL136528.1: -3.4157
  log2FoldChange, feature AL606468.1: -2.361
  log2FoldChange, feature AL606500.1: -4.456
  log2FoldChange, feature ANLN: -2.17
  log2FoldChange, feature APOLD1: -2.2948
  log2FoldChange, feature ARHGEF16: -2.5327
  log2FoldChange, feature ARHGEF39: -2.785
  log2FoldChange, feature ASF1B: -2.413
  log2FoldChange, feature ASPM: -2.923
  log2FoldChange, feature AURKA: -1.946
  log2FoldChange, feature AURKB: -5.69
  log2FoldChange, feature BIRC5: -4.128
  log2FoldChange, feature BUB1B: -2.255
  log2FoldChange, feature C1QL1: -2.176
  log2FoldChange, feature CCNA1: -1.944
  log2FoldChange, feature CCNA2: -3.66
  log2FoldChange, feature CCNB1: -2.309
  log2FoldChange, feature CCNB2: -2.58
  log2FoldChange, feature CDC20: -2.615
  log2FoldChange, feature CDC25C: -2.251
  log2FoldChange, feature CDC45: -1.967
  log2FoldChange, feature CDCA2: -2.288
  log2FoldChange, feature CDCA3: -4.424
  log2FoldChange, feature CDCA5: -2.481
  log2FoldChange, feature CDCA8: -2.683
  log2FoldChange, feature CDK1: -3.117
  log2FoldChange, feature CDT1: -2.6933
  log2FoldChange, feature CENPE: -2.304
  log2FoldChange, feature CENPF: -2.646
  log2FoldChange, feature CENPM: -2.763
  log2FoldChange, feature CENPU: -1.962
  log2FoldChange, feature CEP55: -2.857
  log2FoldChange, feature CIT: -1.908
  log2FoldChange, feature CKAP2L: -3.667
  log2FoldChange, feature COL2A1: -2.114
  log2FoldChange, feature CSRP3-AS1: -2.408
  log2FoldChange, feature DEPDC1: -2.44
  log2FoldChange, feature DHRS2: -3.141
  log2FoldChange, feature DIAPH3: -2.737
  log2FoldChange, feature DIAPH3-AS1: -2.318
  log2FoldChange, feature DLGAP5: -4.307
  log2FoldChange, feature DUSP9: -1.8912
  log2FoldChange, feature E2F1: -2.143
  log2FoldChange, feature E2F2: -2.717
  log2FoldChange, feature E2F7: -1.962
  log2FoldChange, feature E2F8: -4.471
  log2FoldChange, feature EMILIN3: -2.469
  log2FoldChange, feature ESCO2: -3.335
  log2FoldChange, feature ESPL1: -2.787
  log2FoldChange, feature EXO1: -2.588
  log2FoldChange, feature FAM72C: -1.941
  log2FoldChange, feature FAM83D: -2.106
  log2FoldChange, feature FAM111B: -3.61
  log2FoldChange, feature FBLN7: -2.095
  log2FoldChange, feature FBXO5: -2.254
  log2FoldChange, feature FOXM1: -3.356
  log2FoldChange, feature FOXN4: -2.7907
  log2FoldChange, feature GTSE1: -3.691
  log2FoldChange, feature H2AFX: -1.9706
  log2FoldChange, feature HIST1H1B: -4.86
  log2FoldChange, feature HIST1H1D: -3.125
  log2FoldChange, feature HIST1H1E: -2.149
  log2FoldChange, feature HIST1H2AB: -3.666
  log2FoldChange, feature HIST1H2AD: -2.176
  log2FoldChange, feature HIST1H2AG: -3.09
  log2FoldChange, feature HIST1H2AH: -3.181
  log2FoldChange, feature HIST1H2AI: -3.193
  log2FoldChange, feature HIST1H2AJ: -3.606
  log2FoldChange, feature HIST1H2AK: -2.038
  log2FoldChange, feature HIST1H2AL: -4.067
  log2FoldChange, feature HIST1H2AM: -2.962
  log2FoldChange, feature HIST1H2BB: -4.24
  log2FoldChange, feature HIST1H2BF: -2.791
  log2FoldChange, feature HIST1H2BH: -2.674
  log2FoldChange, feature HIST1H2BI: -3.141
  log2FoldChange, feature HIST1H2BK: -2.1572
  log2FoldChange, feature HIST1H2BL: -3.055
  log2FoldChange, feature HIST1H2BM: -3.899
  log2FoldChange, feature HIST1H2BO: -4.102
  log2FoldChange, feature HIST1H3A: -2.494
  log2FoldChange, feature HIST1H3B: -4.012
  log2FoldChange, feature HIST1H3C: -3.43
  log2FoldChange, feature HIST1H3D: -3.164
  log2FoldChange, feature HIST1H3F: -4.011
  log2FoldChange, feature HIST1H3G: -5.89
  log2FoldChange, feature HIST1H3I: -2.396
  log2FoldChange, feature HIST1H4A: -2.4627
  log2FoldChange, feature HIST1H4B: -3.363
  log2FoldChange, feature HIST1H4C: -2.564
  log2FoldChange, feature HIST1H4D: -2.3219
  log2FoldChange, feature HIST1H4L: -3.364
  log2FoldChange, feature HIST2H2AA4: -2.973
  log2FoldChange, feature HIST2H2AB: -2.432
  log2FoldChange, feature HIST2H2AC: -2.094
  log2FoldChange, feature HIST2H3D: -3.112
  log2FoldChange, feature HIST2H4B: -3.0547
  log2FoldChange, feature HJURP: -3.812
  log2FoldChange, feature HMGB2: -3.4975
  log2FoldChange, feature HMGN2: -1.988
  log2FoldChange, feature HMMR: -2.398
  log2FoldChange, feature HMMR-AS1: -1.986
  log2FoldChange, feature IQGAP3: -3.825
  log2FoldChange, feature KIF2C: -3.46
  log2FoldChange, feature KIF4A: -3.264
  log2FoldChange, feature KIF11: -2.445
  log2FoldChange, feature KIF14: -1.93
  log2FoldChange, feature KIF15: -2.295
  log2FoldChange, feature KIF18B: -3.458
  log2FoldChange, feature KIF20A: -5.621
  log2FoldChange, feature KIF23: -2.582
  log2FoldChange, feature KIFC1: -3.063
  log2FoldChange, feature KNL1: -2.569
  log2FoldChange, feature LHX2: -2.082
  log2FoldChange, feature LINC00243: -2.438
  log2FoldChange, feature LINC01647: -5.161
  log2FoldChange, feature LINC01775: -2.182
  log2FoldChange, feature LMNB1: -1.981
  log2FoldChange, feature MCM10: -2.2
  log2FoldChange, feature MELK: -2.093
  log2FoldChange, feature MIR924HG: -2.274
  log2FoldChange, feature MKI67: -6.243
  log2FoldChange, feature MUC22: -3.844
  log2FoldChange, feature MXD3: -2.803
  log2FoldChange, feature MYB: -2.501
  log2FoldChange, feature MYBL2: -3.875
  log2FoldChange, feature NCAPG: -2.9227
  log2FoldChange, feature NCAPH: -2.746
  log2FoldChange, feature NDC80: -2.667
  log2FoldChange, feature NEIL3: -3.743
  log2FoldChange, feature NEK2: -3.576
  log2FoldChange, feature NEURL1B: -1.929
  log2FoldChange, feature NMU: -2.574
  log2FoldChange, feature NRM: -1.8865
  log2FoldChange, feature NRTN: -3.311
  log2FoldChange, feature NT5DC4: -2.34
  log2FoldChange, feature NUSAP1: -3.196
  log2FoldChange, feature NXPH2: -2.198
  log2FoldChange, feature PAK6: -1.969
  log2FoldChange, feature PAPOLB: -2.347
  log2FoldChange, feature PBK: -3.281
  log2FoldChange, feature PCLAF: -3.5822
  log2FoldChange, feature PCNA: -1.969
  log2FoldChange, feature PIF1: -3.124
  log2FoldChange, feature PIMREG: -3.009
  log2FoldChange, feature PKMYT1: -2.904
  log2FoldChange, feature PLK1: -3.608
  log2FoldChange, feature PRC1: -2.44
  log2FoldChange, feature PRIM1: -2.274
  log2FoldChange, feature PTTG1: -2.767
  log2FoldChange, feature RAD51AP1: -1.918
  log2FoldChange, feature RAD54L: -1.967
  log2FoldChange, feature RPP25: -1.919
  log2FoldChange, feature RRM2: -5.156
  log2FoldChange, feature SAPCD2: -1.989
  log2FoldChange, feature SDC1: -2.261
  log2FoldChange, feature SHCBP1: -2.035
  log2FoldChange, feature SKA1: -3.026
  log2FoldChange, feature SLC7A3: -2.68
  log2FoldChange, feature SPAG5: -2.024
  log2FoldChange, feature SPC24: -2.603
  log2FoldChange, feature SPC25: -3.836
  log2FoldChange, feature TACC3: -2.439
  log2FoldChange, feature TICRR: -2.318
  log2FoldChange, feature TK1: -2.815
  log2FoldChange, feature TMPO-AS1: -2.127
  log2FoldChange, feature TMSB15A: -2.211
  log2FoldChange, feature TOP2A: -4.082
  log2FoldChange, feature TP73: -3.442
  log2FoldChange, feature TPX2: -2.42
  log2FoldChange, feature TROAP: -3.212
  log2FoldChange, feature TTK: -1.967
  log2FoldChange, feature TYMS: -2.957
  log2FoldChange, feature UBE2C: -3.754
  log2FoldChange, feature UBE2T: -1.955
  log2FoldChange, feature WDR76: -2.235
  log2FoldChange, feature ZWINT: -1.901
